According to US8263579B2, “Anti-inflammatory compounds” (Piramal Healthcare Limited, priority 2011, dated 2012):

Legend:
[1] = test system: IL-6; test: High throughput screening in LPS stimulated THP-1 cells, IL-6 release by ELISA; format: cell-based
Description: (§1) The assay was designed on the basis of the reference, The Journal of Immunology, 1993, 151 (10), 5631-5638, the disclosure of which is incorporated by reference for the teaching of the assay.
(§2) THP-1 (ATCC, USA) cells were cultured in RPMI 1640 (Roswell Park Memorial Institute) culture medium (Gibco BRL, Pasley, UK) containing 100 U/ml penicillin, […] streptomycin (100× solution, Sigma Chemical Co. St Louis, Mo., USA) and 10% fetal bovine serum (Gibco BRL, Pasley, UK). The cells were differentiated into macrophages with phorbol myristate acetate (Sigma, USA) in 96 well culture plates. Following cell plating, various concentrations of the compound of formula I or the compound of formula II or vehicle (0.5% DMSO) were added to each well and the plate was incubated for 30 min at 37° C. Finally, per well, 20 μL of LPS (10 μg/mL stock solution) (Escherchia coli 0127:B8, Sigma Chemical Co., St. Louis, Mo.) was added for a final concentration of 1 μg/mL. Plates were incubated at 37° C. for 24 hours in an atmosphere of 5% CO2. Supernatants were harvested, and assayed for TNF-α and IL-6 by ELISA as described by the manufacturer (BD Biosciences). Percent inhibition of cytokine release compared to the control was calculated. The 50% inhibitory concentration (IC50) values were calculated by a nonlinear regression method.
(§3) Dexamethasone was used as standard.

[2] = test system: TNF-α; test: High throughput screening in LPS stimulated THP-1 cells, TNF-α release by ELISA; format: cell-based
Description: as §1, §2, §3

[3] = Homo sapiens, LPS (1 μg/mL) stimulated THP-1 cells differentiated with PMA, 24 hours, ELISA
[4] = preparative HPLC fractions tested by method of Example 7
[5] = Homo sapiens, at 1 μg/ml, LPS stimulated THP-1 cells

Row | IC50 [1, 3] [µg/mL] | IC50 [2, 3] [µg/mL] | SMILES | IL-6 inhibition of HPLC fractions (qualitative) [1, 4] | TNF-α inhibition of HPLC fractions (qualitative) [2, 4] | inhibition at 1 µg/mL [1, 5] [%] | inhibition at 1 µg/mL [2, 5] [%]
1 | 1.2 | 1.5 | CCCCCCCCCCCCO/N=N/OC [Compound of formula II] | exhibited IL-6 and TNF-α inhibition | exhibited IL-6 and TNF-α inhibition |  | 
2 |  |  | C[C@@H]1C[C@H]2[C@@H]3CCC4=CC(=O)C=C[C@]4(C)[C@@]3(F)[C@@H](O)C[C@]2(C)[C@@]1(O)C(=O)CO [Dexamethasone, reference compound] |  |  | 84 | 73
